Measured values from US9174917B2, “Bexarotene analogs” (Arizona Board of Regents on Behalf of Arizona State …, priority 2010, dated 2015).

Legend:
RXR = settings: from the literature; cited from earlier work
CTCL cells = assay: DNA microarray gene expression analysis in CTCL cells; assay type: cell-based, human; settings: 4-hour treatment, versus ethanol vehicle control
From the text: DNA microarray analysis is a method to assess genome-wide gene expression by simultaneously quantitating mRNA levels from all or a subset of genes in a genome and comparing these levels between a control and an experimental sample. These changes are compared, such as in as wild type versus mutant strains or cells with no treatment compared to cells treated with a reagent. RNA is extracted from the two cell types, and either converted to cDNA or amplified to cRNA, and then this message pool is used to assess gene expression changes. Both pools of labeled message are hybridized to a DNA microarray (or “gene chip”). These microarrays have all genes in the genome spotted onto the array in a precise fashion, such that this chip experiment becomes a genome-wide northern blot, assaying the message levels of all genes in the cells. Since the control and the experimental are hybridized to the same chip, there can be direct comparisons performed between the starting mRNA levels of the two, looking for genes that are under or over expressed in the experimental as compared to the control, analyzing the intensity of the hybridization of both cDNA pools.
The total RNA will be isolated from human CTCL cells, either untreated or treated with bexarotene or the appropriate analog. The RNA quality and integrity will be tested before hybridization using denaturing gel electrophoresis as well as reverse transcription followed by PCR. Once high quality RNA is isolated, labeled cRNA can be generated with the Genisphere 350 kit. Microarrays are readily available for such tests, for example, human microarrays can be obtained from Washington University St. Louis (Human HEEBO microarrays), or alternatively from the Toronto Microarray Centre (Toronto, Canada).
CTCL cells were treated bexarotene or ethanol vehicle control and total RNA was extracted after 4-hour treatment using the BioRad Aurum Total RNA Mini kit. Total RNA extracted was utilized to produce cRNA using a Genisphere 350 kit and was used to hybridize human HEEBO microarray slides obtained from GCAT (Genome Consortium for Active Teaching). The Genisphere 350 kit high sensitivity protocol was used and representative results were obtained (data not shown). […] Likewise, there was a 2.9-fold downregulation of REEP, a gene that occurs in a deleted segment of human 5q31 in malignant myeloid diseases; and 2.6-fold downregulation of RAC GAP1, a GTPase activating protein of RAC, a protein required for malignant cell movement106; and 2.5-fold downregulation of karyopherin alpha 1 (importing alpha 5), a protein required for STAT1 import into the nucleus. […]

SMILES	reported / documented RXR activity (RXR)	downregulation of RAC GAP1 (CTCL cells)	downregulation of REEP (CTCL cells)	downregulation of karyopherin alpha 1 (importing alpha 5) (CTCL cells)	upregulation of death associated protein kinase 3 (CTCL cells)	upregulation of endothelin converting enzyme 1 (CTCL cells)	upregulation of urocortin (CTCL cells)
Cc1cc2c(cc1C1(c3ccc(C(=O)O)cc3)CC1)C(C)(C)CCC2(C)C [Compound 105]	potent, RXR-selective agonists						
CC(/C=C/C1(c2cc3c(cc2C)C(C)(C)CCC3(C)C)CC1)=C\C(=O)O [Compound 106]	potent, RXR-selective agonists						
C=C(c1ccc(C(=O)O)cc1)c1cc2c(cc1C)C(C)(C)CCC2(C)C [bexarotene]		2.6 fold	2.9 fold	2.5 fold	4.3 fold	4.6 fold	3.5 fold
